Measured values from ChEMBL document CHEMBL3352474, “Design, synthesis and biological evaluation of FLT3 covalent inhibitors with a resorcylic acid core” (Bioorg Med Chem, 2014).

Key:
[1] = target: Receptor-type tyrosine-protein kinase FLT3 (Homo sapiens, UniProt P36888, D835Y); experiment: Inhibition of recombinant FLT3 D835Y mutant (unknown origin) by TR-FRET assay
[2] = target: MAP kinase-interacting serine/threonine-protein kinase 2 (Homo sapiens) (UniProt Q9HBH9); experiment: Inhibition of MNK2 (unknown origin) at 10 uM
Chain of MAP kinase-interacting serine/threonine-protein kinase 2 (Homo sapiens) (Q9HBH9 whole entry, looked up): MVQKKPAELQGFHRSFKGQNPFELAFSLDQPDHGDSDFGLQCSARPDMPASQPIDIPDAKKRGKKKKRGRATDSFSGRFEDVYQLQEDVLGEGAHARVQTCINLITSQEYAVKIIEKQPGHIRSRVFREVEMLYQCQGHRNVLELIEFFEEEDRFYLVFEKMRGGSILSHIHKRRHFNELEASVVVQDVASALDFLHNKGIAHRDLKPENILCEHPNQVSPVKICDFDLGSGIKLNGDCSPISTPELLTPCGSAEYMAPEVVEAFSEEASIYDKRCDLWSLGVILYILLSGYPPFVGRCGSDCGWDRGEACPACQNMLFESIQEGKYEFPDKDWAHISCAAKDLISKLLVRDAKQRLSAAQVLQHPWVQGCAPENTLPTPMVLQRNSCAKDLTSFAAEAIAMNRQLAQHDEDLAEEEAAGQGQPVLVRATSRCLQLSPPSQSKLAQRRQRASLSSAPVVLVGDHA

MV4-11 [3] = experiment: Antiproliferative activity against human MV4-11 cells after 72 hrs by luminescent cell viability assay; assay type: functional, cell-based; conditions: MV4-11, 72 h
[4] = target: Receptor-type tyrosine-protein kinase FLT3 (Homo sapiens, UniProt P36888, ITD); experiment: Inhibition of recombinant FLT3 ITD mutant (unknown origin) by RBC kinase assay
MV4-11 [5] = experiment: Antiproliferative activity against human MV4-11 cells assessed as growth inhibition at 5 uM after 72 hrs by luminescent cell viability assay; assay type: functional; conditions: MV4-11, 72 h, read-out: GI
[6] = target: MAP kinase-interacting serine/threonine-protein kinase 1 (Homo sapiens) (UniProt Q9BUB5); experiment: Inhibition of MNK1 (unknown origin) at 10 uM
Chain of MAP kinase-interacting serine/threonine-protein kinase 1 (Homo sapiens) (Q9BUB5 whole entry, looked up): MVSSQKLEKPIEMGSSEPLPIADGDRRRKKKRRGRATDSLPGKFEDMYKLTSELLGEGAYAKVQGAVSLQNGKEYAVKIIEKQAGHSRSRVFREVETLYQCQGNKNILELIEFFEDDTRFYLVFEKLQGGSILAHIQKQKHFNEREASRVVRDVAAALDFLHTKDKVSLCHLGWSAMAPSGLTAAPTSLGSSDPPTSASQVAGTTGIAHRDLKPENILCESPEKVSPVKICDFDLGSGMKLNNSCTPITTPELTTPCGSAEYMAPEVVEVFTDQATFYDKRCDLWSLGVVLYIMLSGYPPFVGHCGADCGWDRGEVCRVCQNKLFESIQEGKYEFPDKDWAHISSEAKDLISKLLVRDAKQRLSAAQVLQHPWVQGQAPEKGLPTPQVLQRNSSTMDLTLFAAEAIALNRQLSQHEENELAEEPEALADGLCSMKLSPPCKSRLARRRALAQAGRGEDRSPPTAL

[7] = target: T1, Receptor-type tyrosine-protein kinase FLT3 (Homo sapiens, UniProt P36888); experiment: Inhibition of recombinant FLT3 (unknown origin) by TR-FRET assay
T1 sequence (P36888 whole entry): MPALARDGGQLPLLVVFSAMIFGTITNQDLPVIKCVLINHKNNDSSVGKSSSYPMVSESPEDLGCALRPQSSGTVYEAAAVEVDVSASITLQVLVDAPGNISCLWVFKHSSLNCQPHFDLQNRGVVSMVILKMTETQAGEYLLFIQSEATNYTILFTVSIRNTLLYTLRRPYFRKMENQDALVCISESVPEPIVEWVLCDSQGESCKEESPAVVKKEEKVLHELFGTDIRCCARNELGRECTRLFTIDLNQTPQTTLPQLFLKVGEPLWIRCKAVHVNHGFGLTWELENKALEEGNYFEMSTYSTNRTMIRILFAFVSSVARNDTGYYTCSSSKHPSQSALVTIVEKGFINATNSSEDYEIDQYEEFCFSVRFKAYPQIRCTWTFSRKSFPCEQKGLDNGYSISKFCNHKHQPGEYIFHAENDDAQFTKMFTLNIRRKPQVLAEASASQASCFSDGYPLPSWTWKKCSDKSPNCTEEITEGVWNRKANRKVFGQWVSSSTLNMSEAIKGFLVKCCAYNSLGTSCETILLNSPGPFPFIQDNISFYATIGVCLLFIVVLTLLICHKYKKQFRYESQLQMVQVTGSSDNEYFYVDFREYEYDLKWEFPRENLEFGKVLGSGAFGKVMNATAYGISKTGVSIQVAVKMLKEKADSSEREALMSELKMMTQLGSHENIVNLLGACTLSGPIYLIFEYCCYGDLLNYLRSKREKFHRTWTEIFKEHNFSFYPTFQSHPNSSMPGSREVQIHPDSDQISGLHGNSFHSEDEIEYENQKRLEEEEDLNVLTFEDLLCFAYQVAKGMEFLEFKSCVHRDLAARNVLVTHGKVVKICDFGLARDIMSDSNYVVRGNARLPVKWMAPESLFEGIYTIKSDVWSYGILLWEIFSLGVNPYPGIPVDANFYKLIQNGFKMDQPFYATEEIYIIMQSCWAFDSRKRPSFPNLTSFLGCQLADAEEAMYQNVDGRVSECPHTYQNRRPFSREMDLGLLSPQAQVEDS

K562 = experiment: Antiproliferative activity against human K562 cells assessed as growth inhibition at 5 uM after 72 hrs by luminescent cell viability assay; assay type: functional; conditions: K562, 72 h, read-out: GI
[8] = Antiproliferative activity against human HEK293T cells assessed as growth inhibition at 5 uM after 72 hrs by luminescent cell viability assay; assay type: cell-based, HEK-293T; conditions: read-out: GI
[9] = Antiproliferative activity against human THP1 cells after 72 hrs by luminescent cell viability assay; assay type: functional, cell-based; conditions: THP-1, 72 h
[10] = Antiproliferative activity against human HL60 cells assessed as growth inhibition at 5 uM after 72 hrs by luminescent cell viability assay; assay type: functional; conditions: HL-60, 72 h, read-out: GI
[11] = Antiproliferative activity against human THP1 cells assessed as growth inhibition at 5 uM after 72 hrs by luminescent cell viability assay; assay type: functional; conditions: THP-1, 72 h, read-out: GI

Compound	IC50 [1]	inhibition [2]	IC50 (MV4-11 [3])	IC50 [4]	inhibition of growth at 5 µM (MV4-11 [5])	inhibition [6]	IC50 [7]	inhibition of growth at 5 µM (K562)	inhibition at 72 h, 5 µM [8]	IC50 [9]	inhibition of growth at 5 µM [10]	inhibition of growth at 5 µM [11]
COc1cc(O)c(C(=O)OC(C)C)c(/C=C/CN2C(=O)C=CC2=O)c1	1.34 µM	4.1%	1.73 µM	9.79 µM	99.8%	5.4%	0.54 µM	95.7%	8%	7.32 µM	65.7%	41.8%
COc1cc(O)c(C(=O)OCc2ccc(Br)cc2)c(/C=C/CN2C(=O)C=CC2=O)c1	1.74 µM	0%	1.01 µM	> 30 µM	97.9%	4.3%	1.9 µM	28.7%	20.1%	7.97 µM	36.7%	0%
C=CS(=O)(=O)NC/C=C/c1cc(OC)cc(O)c1C(=O)OCC(C)c1ccccc1 (stereo unspecified)	≥ 30 µM	–	7.73 µM	≥ 30 µM	9.6%	–	≥ 30 µM	16.7%	22.5%	> 10 µM	9.5%	5.6%
CCN(CC)C/C=C/C(=O)NC/C=C/c1cc(OC)cc(O)c1C(=O)OC(C)C	15.9 µM	5.2%	> 10 µM	–	–	12.5%	> 30 µM	–	–	–	–	–
C=CS(=O)(=O)NC/C=C/c1cc(OC)cc(O)c1C(=O)OCc1ccc(Br)cc1	≥ 30 µM	–	6.06 µM	≥ 30 µM	61%	–	≥ 30 µM	38.4%	0%	6.24 µM	8.1%	31.2%
C=CS(=O)(=O)NC/C=C/c1cc(OC)cc(O)c1C(=O)OC(C)C	12 µM	13.9%	4.66 µM	2.25 µM	72.3%	5.6%	10.8 µM	36.2%	0.1%	14.7 µM	16.6%	19.9%
C=CS(=O)(=O)NCCCc1cc(OCCN2CCOCC2)cc(O)c1C(=O)OC(C)C	18.6 µM	–	7.61 µM	4.23 µM	20.4%	–	> 30 µM	13.8%	28.4%	> 10 µM	2%	0%
COc1cc(O)c(C(=O)OCc2ccc(F)cc2)c(/C=C/CN2C(=O)C=CC2=O)c1	0.95 µM	0%	1.46 µM	> 30 µM	99.7%	4.1%	1.64 µM	96.4%	37.9%	7.34 µM	82.2%	0%
CC(C)OC(=O)c1c(O)cc(OCCCN2CCOCC2)cc1/C=C/CN1C(=O)C=CC1=O	0.94 µM	3.1%	1.89 µM	0.98 µM	99.8%	8%	0.15 µM	95.9%	38.8%	7.88 µM	89.1%	62.5%
COc1cc(O)c(C(=O)OC(C)C)c(/C=C/CNC(C)=O)c1	14.2 µM	–	> 10 µM	–	–	–	> 50 µM	–	–	–	–	–
CCN(CC)C/C=C/C(=O)NC/C=C/c1cc(OC)cc(O)c1C(=O)O[C@@H](C)C(C)C	≥ 30 µM	–	> 10 µM	≥ 30 µM	–	–	≥ 30 µM	–	–	–	–	–
C=CC(=O)NC/C=C/c1cc(OC)cc(O)c1C(=O)OC(C)C	≥ 30 µM	–	> 10 µM	≥ 30 µM	–	–	≥ 30 µM	–	–	–	–	–
COc1cc(/C=C/CN2C(=O)C=CC2=O)c(C(=O)OC(C)C)c(OC(C)=O)c1	3.61 µM	5%	2.15 µM	21.8 µM	99.8%	6.7%	3.37 µM	99.2%	47.4%	10.4 µM	87.9%	3.3%
CCN(CC)C/C=C/C(=O)NC/C=C/c1cc(OCCc2ccc(F)cc2)cc(O)c1C(=O)OC(C)C	> 30 µM	0.8%	4.04 µM	1.11 µM	84.9%	7.8%	> 30 µM	49.8%	28.5%	> 10 µM	36.8%	25.7%
CC(C)OC(=O)c1c(O)cc(OCCN2CCOCC2)cc1CCCN1C(=O)C=CC1=O	0.81 µM	1.8%	3.51 µM	8.87 µM	99.8%	8.8%	0.58 µM	99.3%	13.3%	5.43 µM	98.9%	81.5%
COc1cc(O)c(C(=O)OCC(C)c2ccccc2)c(/C=C/CN2C(=O)C=CC2=O)c1 (stereo unspecified)	5.2 µM	0%	3.38 µM	> 30 µM	99%	8.6%	3.01 µM	74.9%	0%	> 10 µM	56%	0%
C=CC(=O)NC/C=C/c1cc(OC)cc(O)c1C(=O)O[C@@H](C)C(C)C	≥ 30 µM	–	> 10 µM	≥ 30 µM	–	–	≥ 30 µM	–	–	–	–	–
C/C=C/C(=O)NC/C=C/c1cc(OCCCN2CCOCC2)cc(O)c1C(=O)OC(C)C	10.5 µM	12.9%	> 10 µM	–	–	5.8%	16.2 µM	–	–	–	–	–
C/C=C/C(=O)NC/C=C/c1cc(OCCc2ccc(F)cc2)cc(O)c1C(=O)OC(C)C	≥ 30 µM	–	> 10 µM	≥ 30 µM	–	–	≥ 30 µM	–	–	–	–	–
C=CS(=O)(=O)NC/C=C/c1cc(OC)cc(O)c1C(=O)OCc1ccc(F)cc1	≥ 30 µM	–	5.14 µM	≥ 30 µM	70.5%	–	≥ 30 µM	52%	0%	6.55 µM	10.9%	41.7%
C/C=C/C(=O)NC/C=C/c1cc(OC)cc(O)c1C(=O)OC(C)C	≥ 30 µM	–	> 10 µM	≥ 30 µM	–	–	≥ 30 µM	–	–	–	–	–
COc1cc(O)c2c(c1)CCC[C@H](O)[C@H](O)C(=O)/C=C\C[C@H](C)OC2=O	0.011 µM	–	0.01 µM	0.036 µM	99.7%	–	0.062 µM	69.7%	74.6%	1.18 µM	86%	81.5%
C=CS(=O)(=O)NC/C=C/c1cc(OC)cc(O)c1C(=O)OCC1CCCCC1	≥ 30 µM	–	5.86 µM	≥ 30 µM	56.4%	–	≥ 30 µM	27.4%	31.2%	7.88 µM	7.5%	26.5%
